Results taken from patent US12122778B2, “Activating pyruvate kinase R” (Novo Nordisk Health Care AG, priority 2018, dated 2024).

Columns and labels:
[1] = target: PKR(wt) (Homo sapiens, UniProt P30613); experiment: Luminescence Biochemical Assay (Kinase Glo Plus), wild type PKR; conditions: without FBP; for activation at 1.54 µM: 1.54 μM compound, read-out: AC50 LUM KGP woFBP % Fold@1.54 μM mean; for AC50: read-out: AC50 LUM KGP woFBP AC50 μM gmean; for Emax: read-out: AC50 LUM KGP woFBP MAX % FOLD mean
Procedure: (§1) In some embodiments, a PKR Activating Compound can have: (1) an AC50 value of less than 0.1 μM (e.g., compounds with AC50 values of “+++” in Table 13), 0.1-1.0 μM (e.g., compounds with AC50 values of “++” in Table 13), or 1.01-40 μM (e.g., compounds with AC50 values of “+” in Table 13); (2) a MAX % Fold of 75%-250%, 250-500%, or 75%-500%; and/or (3) a % Fold@1.54 μM of 75%-250%, 250-500%, or 75%-500%. In some embodiments, a PKR Activating Compound has (1) an AC50 value of less than 1.0 μM; (2) a MAX % Fold of 75%-500%; and/or (3) a % Fold@1.54 μM of 75%-500%.
(§2) The phosphorylation of Adenosine-5′-diphosphate (ADP) by various mutants of PKR was determined by the Kinase Glo Plus Assay (Promega) in the presence or absence of FBP [D-Fructose-1,6-diphosphate; BOC Sciences, CAS: 81028-91-3] as follows. Unless otherwise indicated, all reagents were purchased from Sigma-Aldrich. All reagents were prepared in buffer containing 50 mM Tris-HCl, 100 mM KCl, 5 mM MgCl2, and 0.01% Triton X100, 0.03% BSA, and 1 mM DTT. Enzyme and PEP [Phospho(enol) pyruvic acid] were added at 2× to all wells of an assay-ready plate containing serial dilutions of test compounds or DMSO vehicle. Final enzyme concentrations for PKR(wt), PKR(R510Q), and PKR(G332S) were 0.8 nM, 0.8 nM, and 10 nM respectively. Final PEP concentration was 100 μM. The Enzyme/PEP mixture was incubated with compounds for 30 minutes at RT before the assay was initiated with the addition of 2×ADP [Adenosine-5′-diphosphate] and KinaseGloPlus. Final concentration of ADP was 100 μM. […] For assays containing FBP, that reagent is added at 30 μM upon reaction initiation. Reactions were allowed to progress for 45 minutes at RT until luminescence was recorded by the BMG PHERAstar FS Multilabel Reader. All compounds were tested in triplicate at concentrations ranging from 42.5 μM to 2.2 nM in 0.83% DMSO.
(§3) Luminescence values were converted to % Fold increase by normalizing to the average of the DMSO control and multiplying by 100. Max, min, slope and AC50 were determined by the standard four parameter fit algorithm of ActivityBase XE Runner. Compounds were evaluated with three parameters—AC50, MAX % Fold, and % Fold@1.54 μM (FIG. 1). The AC50 value for a compound is the concentration (μM) corresponding to the midway between the maximum and minimum values of the four parameter logistic curve fit (i.e., at which the % fold increase along the four parameter logistic curve fit is halfway between MAX % Fold and MIN % Fold (% Fold Midpoint)), MAX % Fold is the highest fold increase observed at any concentration of compound, and % Fold@1.54 μM is the fold increase at a compound concentration of 1.54 μM. The parameter % Fold@1.54 μM was selected to capture elements of both the AC50 and MAX % Fold and to provide a ranking based on both potency and effect. The compound concentration of 1.54 μM was chosen as one that can optimally differentiate the set of compounds based on the range of activities observed.
(§4) As set forth in Table 13 below, AC50 values (columns A, D, G) are defined as follows: ≤0.1 μM (+++); >0.1 μM and ≤1.0 μM (++); >1.0 μM and ≤40 μM (+); >40 μM (0). Max % FOLD values (columns B, E, H) are defined as follows: ≤75% (+); >75% and ≤250% (++); >250% and ≤500% (+++). % Fold@1.54 μM values (columns C, F, J) are defined as follows: ≤75% (+); >75% and ≤250% (++); >250% and ≤50000 (+++).

[2] = target: PKR(R510Q) (Homo sapiens, UniProt P30613, R510Q); experiment: Luminescence Biochemical Assay (Kinase Glo Plus), PKR R510Q mutant; conditions: without FBP; for activation at 1.54 µM: 1.54 μM compound, read-out: AC50 LUM KGP woFBP % Fold@1.54 μM mean; for AC50: read-out: AC50 LUM KGP woFBP AC50 μM gmean; for Emax: read-out: AC50 LUM KGP woFBP MAX % FOLD mean
Procedure: as §1, §2, §3, §4

Chain of PKR(wt) (P30613 whole entry): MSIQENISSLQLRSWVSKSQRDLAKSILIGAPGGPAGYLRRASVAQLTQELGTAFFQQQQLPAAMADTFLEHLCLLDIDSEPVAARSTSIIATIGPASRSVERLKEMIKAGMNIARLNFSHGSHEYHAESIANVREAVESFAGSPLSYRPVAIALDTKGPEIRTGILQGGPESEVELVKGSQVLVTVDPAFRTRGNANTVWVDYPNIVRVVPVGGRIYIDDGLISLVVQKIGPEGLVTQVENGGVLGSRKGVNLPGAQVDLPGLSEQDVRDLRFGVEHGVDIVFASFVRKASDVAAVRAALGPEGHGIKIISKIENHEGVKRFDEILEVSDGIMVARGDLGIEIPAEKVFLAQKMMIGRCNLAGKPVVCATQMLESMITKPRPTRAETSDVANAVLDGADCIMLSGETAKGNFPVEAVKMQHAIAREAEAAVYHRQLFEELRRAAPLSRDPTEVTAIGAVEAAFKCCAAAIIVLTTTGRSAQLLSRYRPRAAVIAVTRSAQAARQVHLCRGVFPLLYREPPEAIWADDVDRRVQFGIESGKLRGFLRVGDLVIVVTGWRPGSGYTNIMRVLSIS
Chain of PKR(R510Q) (P30613 whole entry R510Q): as the sequence (P30613 whole entry) above, with R510Q counted along it

| activation at 1.54 µM [1] [%] | AC50 [1] [µM] | Emax [1] [%] | activation at 1.54 µM [2] [%] | AC50 [2] [µM] | Emax [2] [%] | SMILES |
| --- | --- | --- | --- | --- | --- | --- |
| 75 to 250 | 0.1 to 1 | 75 to 250 | 75 to 250 | 1 to 40 | 250 to 500 | O=C([C@H](O)c1ccccc1)N1CC2=C(C1)CN(S(=O)(=O)c1ccc(Cl)cc1)C2 [Example 18-10, (2R)-1-[5-(4-chlorobenzenesulfonyl)-1H,2H,3H,4H,5H,6H-pyrrolo[3,4-c]pyrrol-2-yl]-2-hydroxy-2-phenylethan-1-one] |
| 75 to 250 | 0.1 to 1 | 75 to 250 | 75 to 250 | 1 to 40 | 250 to 500 | O=C([C@H](O)c1ccccc1)N1CC2=C(C1)CN(S(=O)(=O)c1ccc(C(F)(F)F)cc1)C2 [Example 18-11, (2R)-2-hydroxy-2-phenyl-1-{5-[4-(trifluoromethyl)benzene-sulfonyl]-1H,2H,3H,4H,5H,6H-pyrrolo[3,4-c]pyrrol-2-yl}ethan-1-one] |
| 75 to 250 | 1 to 40 | 75 to 250 | 75 to 250 | 1 to 40 | 75 to 250 | O=C([C@H](O)c1ccccc1)N1CC2=C(C1)CN(S(=O)(=O)c1ccc(C(F)(F)F)nc1)C2 [Example 18-14, (2R)-2-hydroxy-2-phenyl-1-(5-{[6-(trifluoromethyl)pyridin-3-yl]sulfonyl}-1H,2H,3H,4H,5H,6H-pyrrolo[3,4-c]pyrrol-2-yl)ethan-1-one] |
| 75 to 250 | 1 to 40 | 75 to 250 | – | – | – | O=C(c1ccccn1)N1CC2=C(C1)CN(S(=O)(=O)c1ccc3occc3c1)C2 [Example 18-83, 2-[5-(1-Benzofuran-5-sulfonyl)-1H,2H,3H,4H,5H,6H-pyrrolo[3,4-c]pyrrole-2-carbonyl]pyridine] |
| 75 to 250 | 1 to 40 | 75 to 250 | – | – | – | Cc1cc(C(=O)N2CC3=C(C2)CN(S(=O)(=O)c2ccc4occc4c2)C3)nn1C [Example 18-84, 3-[5-(1-Benzofuran-5-sulfonyl)-1H,2H,3H,4H,5H,6H-pyrrolo[3,4-c]pyrrole-2-carbonyl]-1,5-dimethyl-1H-pyrazole] |
| 75 to 250 | 1 to 40 | 75 to 250 | – | – | – | Cc1nc(C)c(C(=O)N2CC3=C(C2)CN(S(=O)(=O)c2ccc4occc4c2)C3)s1 [Example 18-85, 5-[5-(1-Benzofuran-5-sulfonyl)-1H,2H,3H,4H,5H,6H-pyrrolo[3,4-c]pyrrole-2-carbonyl]-2,4-dimethyl-1,3-thiazole] |
| 75 to 250 | 1 to 40 | 75 to 250 | – | – | – | O=C(c1cnc(C(F)(F)F)nc1)N1CC2=C(C1)CN(S(=O)(=O)c1ccc3occc3c1)C2 [Example 18-86, 5-[5-(1-Benzofuran-5-sulfonyl)-1H,2H,3H,4H,5H,6H-pyrrolo[3,4-c]pyrrole-2-carbonyl]-2-(trifluoromethyl)pyrimidine] |
| – | – | – | 75 to 250 | 1 to 40 | 75 to 250 | C[C@@H](C(=O)N1CC2=C(C1)CN(S(=O)(=O)c1ccc(Cl)s1)C2)c1ccccc1 [Example 19-1, (2R)-1-{5-[(5-chlorothiophen-2-yl)sulfonyl]-1H,2H,3H,4H,5H,6H-pyrrolo[3,4-c]pyrrol-2-yl}-2-phenylpropan-1-one] |
| – | – | – | 75 to 250 | 1 to 40 | 75 to 250 | Cc1nn(C)c(Cl)c1S(=O)(=O)N1CC2=C(CN(C(=O)[C@H](C)c3ccccc3)C2)C1 [Example 19-2, (2R)-1-{5-[(5-chloro-1,3-dimethyl-1H-pyrazol-4-yl)sulfonyl]-1H,2H,3H,4H,5H,6H-pyrrolo[3,4-c]pyrrol-2-yl}-2-phenylpropan-1-one] |
| 75 to 250 | 0.1 to 1 | 250 to 500 | – | – | – | COc1ccc(CNC(=O)N2CC3=C(C2)CN(S(=O)(=O)c2cccnc2)C3)cc1 [Example 20-2, N-[(4-methoxyphenyl)methyl]-5-(pyridine-3-sulfonyl)-1H,2H,3H,4H,5H,6H-pyrrolo[3,4-c]pyrrole-2-carboxamide] |
| – | – | – | 250 to 50000 | 0.1 to 1 | 250 to 500 | COc1ccc(CNC(=O)N2CC3=C(C2)CN(S(=O)(=O)c2cccc(F)c2)C3)cc1 [Example 20-7, 5-(3-Fluorobenzenesulfonyl)-N-[(4-methoxyphenyl)methyl]-1H,2H,3H,4H,5H,6H-pyrrolo[3,4-c]pyrrole-2-carboxamide] |
| – | – | – | 75 to 250 | 1 to 40 | 75 to 250 | COc1ccc(CNC(=O)N2CC3=C(C2)CN(S(=O)(=O)c2ccc(OC)c(OC)c2)C3)cc1 [Example 20-31, 5-(3,4-Dimethoxybenzenesulfonyl)-N-[(4-methoxyphenyl)methyl]-1H,2H,3H,4H,5H,6H-pyrrolo[3,4-c]pyrrole-2-carboxamide] |
| 250 to 50000 | ≤ 0.1 | 250 to 500 | – | – | – | O=C(NCc1ccco1)N1CC2=C(C1)CN(S(=O)(=O)c1ccc3ncsc3c1)C2 [Example 21-1, 5-(Benzo[d]thiazol-6-ylsulfonyl)-N-(furan-2-ylmethyl)-3,4,5,6-tetrahydropyrrolo[3,4-c]pyrrole-2(1H)-carboxamide] |
| 250 to 50000 | ≤ 0.1 | 250 to 500 | – | – | – | O=C(NCc1ccco1)N1CC2=C(C1)CN(S(=O)(=O)c1ccc(OC(F)F)cc1)C2 [Example 21-2, 5-[4-(Difluoromethoxy)benzenesulfonyl]-N-(furan-2-ylmethyl)-1H,2H,3H,4H,5H,6H-pyrrolo[3,4-c]pyrrole-2-carboxamide] |
| 75 to 250 | 1 to 40 | 250 to 500 | – | – | – | Cc1ccc(C(C)NC(=O)N2CC3=C(C2)CN(S(=O)(=O)c2ccc(OC(F)F)cc2)C3)o1 (stereo not drawn) [Example 21-3, 5-[4-(Difluoromethoxy)benzenesulfonyl]-N-[1-(5-methylfuran-2-yl)ethyl]-1H,2H,3H,4H,5H,6H-pyrrolo[3,4-c]pyrrole-2-carboxamide] |
| 75 to 250 | 1 to 40 | 250 to 500 | – | – | – | Cc1cc(C(C)NC(=O)N2CC3=C(C2)CN(S(=O)(=O)c2ccc(OC(F)F)cc2)C3)c(C)o1 (stereo not drawn) [Example 21-4, 5-[4-(Difluoromethoxy)benzenesulfonyl]-N-[1-(2,5-dimethylfuran-3-yl)ethyl]-1H,2H,3H,4H,5H,6H-pyrrolo[3,4-c]pyrrole-2-carboxamide] |
| 75 to 250 | 1 to 40 | 250 to 500 | – | – | – | Cc1ccc(C(C)NC(=O)N2CC3=C(C2)CN(S(=O)(=O)c2ccc(OC(F)F)cc2)C3)s1 (stereo not drawn) [Example 21-7, 5-[4-(Difluoromethoxy)benzenesulfonyl]-N-[1-(5-methylthiophen-2-yl)ethyl]-1H,2H,3H,4H,5H,6H-pyrrolo[3,4-c]pyrrole-2-carboxamide] |
| 250 to 50000 | 0.1 to 1 | 250 to 500 | – | – | – | O=C(OCc1cccc(F)c1)N1CC2=C(C1)CN(S(=O)(=O)c1ccc3occc3c1)C2 [Example 22-6, (3-Fluorophenyl)methyl 5-(1-benzofuran-5-sulfonyl)-1H,2H,3H,4H,5H,6H-pyrrolo[3,4-c]pyrrole-2-carboxylate] |
| 250 to 50000 | 0.1 to 1 | 250 to 500 | – | – | – | O=C(OCc1cccnc1)N1CC2=C(C1)CN(S(=O)(=O)c1ccc3occc3c1)C2 [Example 22-7, Pyridin-3-ylmethyl 5-(1-benzofuran-5-sulfonyl)-1H,2H,3H,4H,5H,6H-pyrrolo[3,4-c]pyrrole-2-carboxylate] |
